Source: patent US8865750B2, “Small molecule inhibitors of RGS proteins” (The Regents of The University of Michigan, priority 2011, dated 2014)

Assays:
papain = papain (Carica papaya (Papaya), UniProt P00784); assay: biochemical; assay type: biochemical
Source text: Papain (Sigma-Aldrich, St. Louis, Mo.) activity was monitored by the increase in fluorescence caused by the liberation of fluorescein from autoquenched fluorescein-conjugated casein (AnaSpec, San Jose, Calif.).

RGS4/Gα0 interaction = RGS4/Gα0 interaction (Homo sapiens (Human), UniProt P49798); assay: RGS4-GFP membrane translocation (confocal microscopy, HEK-293T); assay type: cell-based; conditions: 100 μM where stated
Description: Cellular Localization Studies:
HEK-293T cells grown to 80-90% confluency in 6-well dishes in DMEM supplemented with 10% fetal bovine serum and Penicillin (100 units/ml)-Streptomycin (100 μg/ml) under 5% CO2 at 37° C. RGS and Gα0 expression was induced by transient co-transfection with either 250 ng of full-length human RGS4 with an N-terminal GFP tag (RGS4pEGFP-C1) or a C-terminal RGS4-GFP (RGS4pDEST47) and 250 ng of pcDNA3.1 or pcDNA with wildtype human Gα0. Cells were split onto poly-D-lysine coated glass coverslips and cultured for 24-48 hours after transfection before live cell imaging. Images were acquired on an Olympus Fluoview 500 confocal microscope with a 60×1.40 numerical aperture (N.A) oil objective. Images were obtained by taking a series of stacks every 0.5 μm through the cell and combining the images into a composite stack. The light source for the fluorescent studies was a 488 nm laser with a 505-525 nm bandpass filter. Images were quantified using NIH ImageJ software version 1.43r.
Confocal Microscopy: HEK-293T cells grown to 80-90% confluency in 6-well dishes in DMEM supplemented with 10% fetal bovine serum and Penicillin (100 units/ml)-Streptomycin (100 μg/ml) under 5% CO2 at 37° C. […] Images were quantified using NIH ImageJ software version 1.43r.

Sequence of papain (P00784 134-345): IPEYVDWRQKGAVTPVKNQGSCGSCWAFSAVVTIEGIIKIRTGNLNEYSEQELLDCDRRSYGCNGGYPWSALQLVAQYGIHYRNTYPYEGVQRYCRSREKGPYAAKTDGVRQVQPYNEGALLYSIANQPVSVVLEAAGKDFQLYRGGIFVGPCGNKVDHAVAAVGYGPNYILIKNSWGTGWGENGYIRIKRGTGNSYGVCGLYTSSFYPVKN
Sequence of RGS4/Gα0 interaction (P49798 whole entry): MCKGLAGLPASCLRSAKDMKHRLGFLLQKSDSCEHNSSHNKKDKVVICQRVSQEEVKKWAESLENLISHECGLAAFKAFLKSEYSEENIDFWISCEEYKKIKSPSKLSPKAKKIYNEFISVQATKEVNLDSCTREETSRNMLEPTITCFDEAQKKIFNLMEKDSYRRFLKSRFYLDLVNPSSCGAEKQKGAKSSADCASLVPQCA

CCCCn1c(=O)sn(CC)c1=O [CCG-203769, 2-ethyl-4-butyl-1,2,4-thiadiazolidine-3,5-dione]
inhibition of papain (papain; 30 μM): unable to inhibit the protease activity of papain
IC50 (papain; Table 7): > 100 µM
reversal of Gα0-induced RGS4 membrane translocation (RGS4/Gα0 interaction): reverses the membrane translocation
